Counter-ions that a name gives are not always drawn. Like-named read-outs stand apart in the source and are kept apart here.
Experiments:
[1] = Coronary vasodilatory action: increase of flow in the anterior interventricular artery, anaesthetised dog, intravenous; assay type: in vivo
[2] = Peripheral vasodilatory action: increase of femoral artery flow, anaesthetised dog, intra-arterial; assay type: in vivo; conditions: 500 μg/kg (0.5 mg/kg) i.a.
Acute toxicity (mouse) = conditions: in vivo; for LD50: read-out: Acute toxicity (DL 50) (converted); for mortality: read-out: Percentage mortality
[3] = Antihypertensive properties in genetically hypertensive (vigil SHR) rat; assay type: in vivo; conditions: for Hypertensive action (vigil SHR rat), effect: 100 mg/kg p.o.
[4] = Increase of flow and oxygenation of the coronary veinous sinus, intravenous perfusion; assay type: in vivo, dog
Experimental: Furthermore, administered by intravenous perfusion, the derivatives of formula I are capable of increasing the flow and oxygenation of the coronary veinous sinus, the flow of the coronary veinous sinus being measured volumetrically by means of a modified MORAWITZ probe, whilst the oxygen content of the coronary veinous blood is calculated from the rate of hemoglobin saturation measured by hemoreflectometry.

[5] = Cerebral vasodilatory properties: sub-cortical irrigation, anaesthetised cat; assay type: in vivo; conditions: 8 mg/kg i.v.
Source text: Administered to an anaesthetised cat by single intravenous injection, the derivatives of formula I are capable of increasing the sub-cortical irrigation measured according to a technique derived from the thermoconductimetric method of SEYLAZ.

[6] = 12.5 mg/kg i.v. perfused in 10 min. (1 ml/min)
[7] = 17.5 mg/kg intravenous perfusion
[8] = anaesthetised dog, 4 mg/kg i.v.
[9] = 100 mg/kg po, genetically hypertensive rat
[10] = 12.7 mg/kg intravenous perfusion
[11] = anaesthetised dog, 2 mg/kg i.v.

COc1cc(C=CC(=O)N2CCN(CC(=O)N3CCCC3)CC2)cc(OC)c1OC [67 350, reference compound]
duration of increase of flow in the anterior interventricular artery [1, 6]: 60 min | increase of flow in the anterior interventricular artery [1, 6]: 59% | duration of increase of femoral artery flow [2]: 12 min | increase of femoral artery flow [2]: 82% | LD50 (Acute toxicity (mouse); iv, mouse, i.v.): 617 mg/kg | LD50 (Acute toxicity (mouse); po, mouse, p.o.): 1000 mg/kg | mortality (Acute toxicity (mouse); mouse, iv, 617 mg/kg, intravenously (mouse), 617 mg/kg): 50% | mortality (Acute toxicity (mouse); mouse, po, 1000 mg/kg, orally (mouse), 1 000 mg/kg): 50% | Hypertensive action (vigil SHR rat), effect ([3]; 4 h): -40% | Hypertensive action (vigil SHR rat), effect ([3]; 24 h): -20%

COc1cc(C=CC(=O)N2CCN(CC(=O)N3CCCCC3)CC2)cc(OC)c1OC.O=C(O)/C=C\C(=O)O [74 0479, N-(3,4,5-trimethoxycinnamoyl)-N'-(piperidinocarbonylmethyl) piperazine maleate]
Increase of flow of the coronary veinous sinus [4, 7]: 50% | Increase of oxygenation of the coronary veinous sinus [4, 7]: 132% | duration of effect on flow of the coronary veinous sinus [4, 7]: 15 min | duration of effect on oxygenation of the coronary veinous sinus [4, 7]: 30 min | duration of increase of flow in the anterior interventricular artery [1, 8]: 40 min | increase of flow in the anterior interventricular artery [1, 8]: 190% | duration of increase of femoral artery flow [2]: 3 min | increase of femoral artery flow [2]: 120% | LD50 (Acute toxicity (mouse); iv, mouse, i.v.): 700 mg/kg | LD50 (Acute toxicity (mouse); po, mouse, p.o.): 2250 mg/kg | mortality (Acute toxicity (mouse); mouse, iv, 700 mg/kg, intravenously (mouse), 700 mg/kg): ~50% | mortality (Acute toxicity (mouse); mouse, po, 250 mg/kg, orally (mouse), 2 250 mg/kg): 50% | animals with systolic arterial pressure lowered by 30 mmHg [3, 9]: 60% | duration of lowering of the systolic arterial pressure [3, 9]: exceeding 24 hours | lowering of the systolic arterial pressure ([3]; 100 mg/kg po, genetically hypertensive rat, in 60% of the animals): 30 mmHg | duration of increase in the sub-cortical flow [5]: 47 min | increase in the sub-cortical flow [5]: 58%

COc1cc(C=CC(=O)N2CCN(CC(=O)N3CCc4ccccc4C3)CC2)cc(OC)c1OC [75 0001, N-(3,4,5-trimethoxycinnamoyl)-N'-(1,2,3,4-tetrahydroisoquinolinocarbonylmethyl)piperazine]
Increase of flow of the coronary veinous sinus ([4]; 29 mg/kg intravenous perfusion): 88% | Increase of oxygenation of the coronary veinous sinus ([4]; 29 mg/kg intravenous perfusion): 142% | duration of effect on flow of the coronary veinous sinus ([4]; 29 mg/kg intravenous perfusion): 15 min | duration of effect on oxygenation of the coronary veinous sinus ([4]; 29 mg/kg intravenous perfusion): 60 min | duration of increase of flow in the anterior interventricular artery [1, 8]: 19 min | increase of flow in the anterior interventricular artery [1, 8]: 45% | duration of increase of femoral artery flow [2]: 7 min | increase of femoral artery flow [2]: 106% | mortality (Acute toxicity (mouse); iv, intravenously (mouse), 580 mg/kg): ~50% | LD50 (Acute toxicity (mouse); iv, mouse, i.v.): 580 mg/kg | duration of increase in the sub-cortical flow [5]: 22 min | increase in the sub-cortical flow [5]: 105%

COc1ccc(CCN(C)C(=O)CN2CCN(C(=O)C=Cc3cc(OC)c(OC)c(OC)c3)CC2)cc1OC [75 0002, N-(3,4,5-trimethoxycinnamoyl)-N'-[N"-methyl N"-(3,4-dimethoxyphenylethyl)aminocarbonylmethyl] piperazine]
Increase of flow of the coronary veinous sinus ([4]; 20 mg/kg intravenous perfusion): 124% | Increase of oxygenation of the coronary veinous sinus ([4]; 20 mg/kg intravenous perfusion): 214% | duration of effect on flow of the coronary veinous sinus ([4]; 20 mg/kg intravenous perfusion): 15 min | duration of effect on oxygenation of the coronary veinous sinus ([4]; 20 mg/kg intravenous perfusion): 60 min | duration of increase of flow in the anterior interventricular artery [1, 8]: 19 min | increase of flow in the anterior interventricular artery [1, 8]: 100% | duration of increase of femoral artery flow [2]: 8 min | increase of femoral artery flow [2]: 105% | mortality (Acute toxicity (mouse); iv, intravenously (mouse), 200 mg/kg): ~50% | LD50 (Acute toxicity (mouse); iv, mouse, i.v.): 200 mg/kg | LD50 (Acute toxicity (mouse); po, mouse, p.o.): 2000 mg/kg | mortality (Acute toxicity (mouse); mouse, po, 2000 mg/kg, orally (mouse), 2 000 mg/kg): 30%

COc1cc(C=CC(=O)N2CCN(CC(=O)N3CCCCCCC3)CC2)cc(OC)c1OC [74 0678, N-(3,4,5-trimethoxycinnamoyl)-N'-(heptamethyleniminocarbonylmethyl) piperazine oxalate]
Increase of flow of the coronary veinous sinus [4, 10]: 65% | Increase of oxygenation of the coronary veinous sinus [4, 10]: 162% | duration of effect on flow of the coronary veinous sinus [4, 10]: 30 min | duration of effect on oxygenation of the coronary veinous sinus [4, 10]: 60 min | duration of increase of flow in the anterior interventricular artery [1, 11]: 8.3 min | increase of flow in the anterior interventricular artery [1, 11]: 148% | duration of increase of femoral artery flow [2]: 4.5 min | increase of femoral artery flow [2]: 226% | mortality (Acute toxicity (mouse); iv, intravenously (mouse), 255 mg/kg): ~50% | LD50 (Acute toxicity (mouse); iv, mouse, i.v.): 255 mg/kg | duration of increase in the sub-cortical flow [5]: 5 min | increase in the sub-cortical flow [5]: 45%

— US4029650A, “Novel derivatives of N-(3,4,5-trimethoxy cinnamoyl)piperazine and the process for preparing them” (priority 1974, dated 1977)
